According to patent publication US20110053900A1, “PROGESTERONE ANTAGONISTS SUCH AS CDB-4124 IN THE TREATMENT OF BREAST CANCER” (Repros Therapeutics inc, priority 2008, published 2011):

Assays:
glucocorticoid receptor = molecular target: T1, glucocorticoid receptor (Homo sapiens, UniProt P04150); settings: compared with parent CDB-4124; cited from earlier work
T1 sequence (P04150 1-777): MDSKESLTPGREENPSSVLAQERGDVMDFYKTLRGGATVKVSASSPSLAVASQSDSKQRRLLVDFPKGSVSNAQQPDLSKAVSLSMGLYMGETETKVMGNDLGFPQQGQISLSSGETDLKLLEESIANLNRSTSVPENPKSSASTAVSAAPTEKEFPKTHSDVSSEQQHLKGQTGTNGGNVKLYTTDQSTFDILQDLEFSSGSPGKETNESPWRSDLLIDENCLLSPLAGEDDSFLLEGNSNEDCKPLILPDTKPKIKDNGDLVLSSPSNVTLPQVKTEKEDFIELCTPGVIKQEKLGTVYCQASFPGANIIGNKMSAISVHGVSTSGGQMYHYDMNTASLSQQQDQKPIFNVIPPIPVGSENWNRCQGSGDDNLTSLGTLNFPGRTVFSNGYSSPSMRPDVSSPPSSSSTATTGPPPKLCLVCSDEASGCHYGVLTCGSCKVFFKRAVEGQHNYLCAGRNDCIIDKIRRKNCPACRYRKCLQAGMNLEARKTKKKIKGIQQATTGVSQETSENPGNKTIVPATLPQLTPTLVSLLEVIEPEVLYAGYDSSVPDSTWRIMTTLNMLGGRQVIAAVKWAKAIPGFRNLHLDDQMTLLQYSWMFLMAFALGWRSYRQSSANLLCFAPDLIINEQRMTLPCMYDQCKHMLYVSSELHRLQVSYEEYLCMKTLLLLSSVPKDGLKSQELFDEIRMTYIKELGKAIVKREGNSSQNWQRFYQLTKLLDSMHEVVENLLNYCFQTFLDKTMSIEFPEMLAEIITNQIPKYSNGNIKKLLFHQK

rabbit uterus = experiment: Anti-McGinty and anti-Clauberg assays; format: in vivo; settings: in comparison to RU 486 and CDB-2914
Description: Also given in the Table are the relative biological activities of the same compounds in the rabbit uterus by the anti-McGinty and anti-Clauberg assays. Compound CDB-2914 (listed at the end of the Table) was used as the control or reference compound (rabbit Biological Activity=1.00) for these experiments because results of experiments using CDB-2914 have been published before (Hild-Petito et al., 1996; Passaro et al., 1997; Reel et al., 1998; Lamer et al., 2000). For the anti-McGinty test, immature female rabbits received a subcutaneous injection of 5 μg estradiol in 10% ethanol/sesame oil daily for 6 consecutive days. On day 7, animals underwent sterile abdominal surgery to ligate a 3-4 cm segment of both uterine horns. The test compound in appropriate solvent was injected intraluminally into the ligated segment of one uterine horn and vehicle alone into the other. A stimulating dose of progesterone (267 μg/day) was administered subcutaneously to each rabbit daily for the next three days to induce endometrial proliferation. All animals were sacrificed at day 10 for removal of the uterus where a segment central to the ligatures was removed and fixed in 10% neutral buffered formalin and submitted for histological processing. Five micron sections stained with hematoxylin and cosin were evaluated microscopically for the degree of endometrial glandular proliferation. The percent inhibition of endometrial proliferation for each rabbit was calculated and the mean of the group of five animals recorded. For the Anti-Clauberg test, immature female rabbits received a subcutaneous injection of 5 μg estradiol in 10% ethanol/sesame oil daily for 6 consecutive days. On day 7, animals received progesterone by subcutaneous injection (160 μg/day) and the experimental compound in appropriate vehicle orally or subcutaneously for five consecutive days. One group of rabbits received progesterone only. Twenty-four hours after the last dose, all animals were sacrificed for removal of the uterus which was cleaned of all fat and connective tissue, weighed to the nearest 0.2 mg and placed in 10% neutral buffered formalin for subsequent histological processing. Five micron sections stained with hematoxylin and eosin were evaluated microscopically for the degree of endometrial glandular proliferation. The percent inhibition of endometrial proliferation at each dose level of the test compound was derived by comparison with progesterone-stimulated animals alone. The data presented in Table 1 (rabbit Biol. Act.) reflects the average of the results obtained for each compound by the anti-McGinty and anti-Clauberg assays relative to CDB-2914.

[1] = Serum progesterone by ELISA; format: in vivo, rat
Procedure: (§1) The animals were assessed three times for their levels of progesterone: initially, when they were about to go on treatment; a second time after 21 days of treatment; and finally after treatment at sacrifice which was 2-4 days after the last s.c. injection. All blood samples were taken by heart puncture; serum was prepared and held frozen at −40° C. The levels of the steroid hormones progesterone, cortisol, and corticosterone were determined by ELISA.
(§2) The concentrations of steroid hormones were determined three times during the study: before the beginning of treatments, after 21 days of treatment and finally after treatment at sacrifice which was 2-4 days after the last s.c. injection. All samples were taken by heart puncture. Serum was obtained and held frozen at −40° C. The levels of steroid hormones were determined by ELISA.

[2] = Estrogen levels in human females during administration; format: in vivo; settings: administration periods of at least six months
[3] = Estrogenic, androgenic, anti-estrogenic and anti-androgenic activities
Serum cortisol by ELISA = format: in vivo, rat; settings: 10 mg/kg, 21 days of dosing
Procedure: as §1, §2

[4] = test system: rabbit progesterone receptor (rbPR) and glucocorticoid receptor (rbGR); experiment: Receptor-binding assays, ratio of relative binding affinities rbPR/rbGR; settings: RBA = EC50 of standard/EC50 of test compound x 100
Procedure: (§3) Certain antiprogestins were tested in receptor-binding assays for their ability to bind rabbit progesterone receptor (rbPR) and glucocorticoid receptor (rbGR). Briefly, cytosol containing PR or GR were prepared in TEGMD buffer (10 mM Tris, pH 7.2, 1.5 mM EDTA, 0.2 mM sodium molybdate, 10% glycerol, 1 mM DTT) from uterus or thymus, respectively, of estradiol-primed immature rabbits. For PR binding, the cytosol was incubated with 6 nM 1,2-[^3H]progesterone (50.0 Ci/mmole) and competitors were added at concentrations from 2 to 100 nM. For binding to GR, the cytosol was incubated with 6 nM 6,7-[^3H]-dexamethasone (40 Ci/mmol) and test compounds were added at concentrations from 20 to 100 nM. After overnight incubation at 4° C., bound and unbound [^3H] steroids were separated by addition of dextran-coated charcoal and centrifugation at 2100×g for 15 min at 4
C. Supernatants containing the [3H]-steroid receptor complexes were decanted into vials containing 4 ml Optifluor (Packard Instrument Co.), vortexed, equilibrated in a liquid scintillation counter for 30 minutes and then counted for 2 minutes. The ECso (Effective Concentration) for each standard curve and each of the compound curves was determined by entering the counting data into a four parameter sigmoidal computer program (RiaSmart® Immunoassay Data Reduction Program, Packard Instrument Co., Meriden, Conn.). Relative binding affinity (RBA) for each compound was calculated using the following equation: EC50 of standard/EC50 of test compound×100. The standards for the PR and GR assays were unlabeled progesterone and dexamethasone, respectively. The results of these experiments are summarized in Table 1, as a ratio of the relative binding affinities of each compound for the rbPR and rbGR receptors (rbPR/rbGR).

[5] = molecular target: T2, glucocorticoid receptor (rbGR) (Oryctolagus cuniculus, UniProt P59667); experiment: Glucocorticoid receptor binding; set-up: species or system rabbit
T2 construct: cytosol containing PR or GR were prepared in TEGMD buffer; from tissue; host or cells: thymus of estradiol-primed immature rabbits (cytosol)
T2 sequence (P59667 1-772): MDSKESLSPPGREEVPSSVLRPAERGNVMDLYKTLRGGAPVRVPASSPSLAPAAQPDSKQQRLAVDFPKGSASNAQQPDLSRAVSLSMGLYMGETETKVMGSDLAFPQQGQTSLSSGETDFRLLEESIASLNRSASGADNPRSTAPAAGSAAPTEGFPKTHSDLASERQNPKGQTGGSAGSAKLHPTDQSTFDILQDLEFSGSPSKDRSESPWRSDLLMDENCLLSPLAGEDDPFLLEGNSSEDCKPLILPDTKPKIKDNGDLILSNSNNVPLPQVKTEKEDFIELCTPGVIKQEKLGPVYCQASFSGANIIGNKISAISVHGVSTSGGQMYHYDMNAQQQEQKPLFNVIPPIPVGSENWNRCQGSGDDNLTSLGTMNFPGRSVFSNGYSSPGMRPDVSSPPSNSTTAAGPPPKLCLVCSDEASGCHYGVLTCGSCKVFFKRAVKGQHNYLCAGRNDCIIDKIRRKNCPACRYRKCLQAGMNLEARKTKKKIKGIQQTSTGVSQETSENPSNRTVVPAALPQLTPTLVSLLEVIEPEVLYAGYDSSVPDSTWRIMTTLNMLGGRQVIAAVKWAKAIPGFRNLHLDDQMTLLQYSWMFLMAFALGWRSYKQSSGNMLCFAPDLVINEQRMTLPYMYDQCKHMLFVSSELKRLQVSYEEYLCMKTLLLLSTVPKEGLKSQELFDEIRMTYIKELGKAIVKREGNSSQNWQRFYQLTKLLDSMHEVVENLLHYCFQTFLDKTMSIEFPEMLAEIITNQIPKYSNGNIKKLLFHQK
Procedure: as §3, with “Briefly, cytosol containing PR or GR were prepared in TEGMD buffer (10 mM Tris, pH 7.2, 1.5 mM EDTA, 0.2 mM sodium molybdate, 10% glycerol, 1 mM DTT) from uterus or thymus, respectively, of estradiol-primed immature rabbits.” left out
C. Supernatants containing the [3H]-steroid receptor complexes were decanted into vials containing 4 ml Optifluor (Packard Instrument Co.), vortexed, equilibrated in a liquid scintillation counter for 30 minutes and then counted for 2 minutes. […] The standards for the PR and GR assays were unlabeled progesterone and dexamethasone, respectively.

For `CNc1ccc([C@H]2C[C@@]3(C)[C@@H](CC[C@]3(OC(C)=O)C(=O)COC)[C@@H]3CCC4=CC(=O)CCC4=C32)cc1` [CDB-4453, 21-methoxy-17α-acetoxy-11β-(4-N-methylaminophenyl)-19-norpregna-4,9-diene-3,20-dione], the “anti-glucocorticoid activity (in words)” value (glucocorticoid receptor) is listed as “even lower anti-glucocorticoid activity than its parent”.
For `CC(=O)OCC(=O)[C@@]1(OC(C)=O)CCC2C3CCC4=CC(=O)CCC4=C3C(c3ccc(N(C)C)cc3)C[C@@]21C` (stereo partly drawn) [CDB-4059, 21-acetoxy-17α-acetoxy-11β-(4 N,N-dimethylaminophenyl)-19-norpregna-4,9-diene-3,20-dione], the “antiprogestin activity in the rabbit uterus (in words)” value (rabbit uterus) was “strong antiprogestin activity”, the “serum progesterone versus before treatment (in words)” value ([1]; 10 mg/kg) was “did not raise serum progesterone levels” and the “Serum Progesterone, Before TX (mean)” value ([1]; 10 mg/kg group, before treatment) was 57 ng/mL. For the same compound, the “Serum Progesterone, During TX (mean)” value ([1]; 10 mg/kg, after 21 days of treatment) was 58 ng/mL, the “Serum Progesterone, After TX (mean)” value ([1]; 10 mg/kg, at sacrifice 2-4 days after the last s.c. injection) was 47 ng/mL and the “estrogen levels in human females (in words)” value [2] was “maintain estrogen levels in the normal range”. For the same compound, the “estrogenic, androgenic, anti-estrogenic, and anti-androgenic activities (in words)” value [3] was “lack estrogenic, androgenic, anti-estrogenic, and anti-androgenic activities”, the “serum cortisol versus control group (in words)” value (Serum cortisol by ELISA) was “significantly higher levels of serum cortisol” and the “rbPR/rbGR (ratio of the relative binding affinities for rbPR and rbGR)” value [4] was 1.89. The “anti-glucocorticoid receptor activity / glucocorticoid receptor binding (in words)” value [5] was “minimal anti-glucocorticoid receptor activity”.
